Experimental data taken from US9580413B2, “Substituted pyrrolidines as ROS tyrosine kinase inhibitors” (NIPPON SHINYAKU CO., LTD., priority 2012, dated 2017).

Key:
[1] = target: T1, JAK2 tyrosine kinase (Homo sapiens, UniProt O60674); test: JAK2 tyrosine kinase inhibitory activity test (ELISA); type: biochemical, humans; conditions: 25 μM ATP substrate solution, 30° C., one hour
T1 construct: purchased Carna Biosciences, Inc
Procedure: (§1) 1. Preparation of Test Substance:
(§2) A test substance was dissolved in dimethyl sulfoxide (DMSO) to 10 mM and further diluted with DMSO to concentrations of 100-fold of the concentrations to be measured (100, 10, 1, 0.1, and 0.01 μM). Furthermore, the resultant was diluted with an assay buffer to 20-fold, thereby preparing a solution as a test substance solution. A solution prepared by diluting DMSO with an assay buffer to 20-fold was used as a negative control. A buffer containing 15 mM Tris-Cl (pH 7.5), 0.01 (v/v) % Tween-20, and 1 mM dithiothreitol was used as the assay buffer.
(§3) 2. Measurement of ROS Tyrosine Kinase Activity and JAK2 Tyrosine Kinase Activity:
(§4) The activity was measured by adopting the ELISA method. […] Finally, an ROS kinase or a JAK2 kinase (derived from humans, Carna Biosciences, Inc.) (diluted with the assay buffer to 0.25 nM) was added to the plate at 20 μL per well, and the resulting mixture was stirred. A reaction was performed at 30° C. for one hour. After the plate was washed 4 times with a washing buffer (50 mM Tris-Cl (pH 7.5), 150 mM NaCl, and 0.02 (v/v) % Tween-20), a blocking buffer (0.1% bovine serum albumin, 50 mM Tris-Cl (pH 7.5), 150 mM NaCl, and 0.02 (v/v) % Tween-20) was added to the plate at 150 μL per well, and incubated at 30° C. for 30 minutes. The blocking buffer was then removed, and a horse radish peroxidase-labeled anti-phosphorylated tyrosine antibody (BD Biosciences, Inc.) (diluted with the blocking buffer to 10,000-fold) was added to the plate at 100 μL per well, and the plate was incubated at 30° C. for 30 minutes. After the plate was washed 4 times with the washing buffer, a 3,3′,5,5′-tetramethylbenzidine solution (Sigma-Aldrich Co., Ltd.) was added to the plate at 100 μL per well to develop the color for 10 minutes. The reaction was stopped by adding 0.1 M sulfuric acid at 100 μL per well. An absorbance at 450 nm was measured with a microplate reader (Model 3550, manufactured by BIO-RAD, Benchmark, manufactured by BIO-RAD, or iMARK, manufactured by BIO-RAD).
(§5) 3. Analysis of Measurement Results:
(§6) A non-linear regression analysis was performed for the measured absorbance with an SAS system (SAS Institute Inc.), and a concentration of each of the test substances of inhibiting the ROS tyrosine kinase activity or JAK2 tyrosine kinase activity at 50% (IC50) was calculated. The inhibitory activity (IC50, nM) of each of the test substances against the ROS tyrosine kinase or JAK2 tyrosine kinase is shown in Tables 6 to 8.

[2] = target: T2, ROS tyrosine kinase (Homo sapiens, UniProt P08922); test: ROS tyrosine kinase inhibitory activity test (ELISA); type: biochemical, humans; conditions: 25 μM ATP substrate solution, 30° C., one hour
T2 construct: purchased Carna Biosciences, Inc
Procedure: as §1, §2, §3, §4, §5, §6

T2 sequence (P08922 28-2347): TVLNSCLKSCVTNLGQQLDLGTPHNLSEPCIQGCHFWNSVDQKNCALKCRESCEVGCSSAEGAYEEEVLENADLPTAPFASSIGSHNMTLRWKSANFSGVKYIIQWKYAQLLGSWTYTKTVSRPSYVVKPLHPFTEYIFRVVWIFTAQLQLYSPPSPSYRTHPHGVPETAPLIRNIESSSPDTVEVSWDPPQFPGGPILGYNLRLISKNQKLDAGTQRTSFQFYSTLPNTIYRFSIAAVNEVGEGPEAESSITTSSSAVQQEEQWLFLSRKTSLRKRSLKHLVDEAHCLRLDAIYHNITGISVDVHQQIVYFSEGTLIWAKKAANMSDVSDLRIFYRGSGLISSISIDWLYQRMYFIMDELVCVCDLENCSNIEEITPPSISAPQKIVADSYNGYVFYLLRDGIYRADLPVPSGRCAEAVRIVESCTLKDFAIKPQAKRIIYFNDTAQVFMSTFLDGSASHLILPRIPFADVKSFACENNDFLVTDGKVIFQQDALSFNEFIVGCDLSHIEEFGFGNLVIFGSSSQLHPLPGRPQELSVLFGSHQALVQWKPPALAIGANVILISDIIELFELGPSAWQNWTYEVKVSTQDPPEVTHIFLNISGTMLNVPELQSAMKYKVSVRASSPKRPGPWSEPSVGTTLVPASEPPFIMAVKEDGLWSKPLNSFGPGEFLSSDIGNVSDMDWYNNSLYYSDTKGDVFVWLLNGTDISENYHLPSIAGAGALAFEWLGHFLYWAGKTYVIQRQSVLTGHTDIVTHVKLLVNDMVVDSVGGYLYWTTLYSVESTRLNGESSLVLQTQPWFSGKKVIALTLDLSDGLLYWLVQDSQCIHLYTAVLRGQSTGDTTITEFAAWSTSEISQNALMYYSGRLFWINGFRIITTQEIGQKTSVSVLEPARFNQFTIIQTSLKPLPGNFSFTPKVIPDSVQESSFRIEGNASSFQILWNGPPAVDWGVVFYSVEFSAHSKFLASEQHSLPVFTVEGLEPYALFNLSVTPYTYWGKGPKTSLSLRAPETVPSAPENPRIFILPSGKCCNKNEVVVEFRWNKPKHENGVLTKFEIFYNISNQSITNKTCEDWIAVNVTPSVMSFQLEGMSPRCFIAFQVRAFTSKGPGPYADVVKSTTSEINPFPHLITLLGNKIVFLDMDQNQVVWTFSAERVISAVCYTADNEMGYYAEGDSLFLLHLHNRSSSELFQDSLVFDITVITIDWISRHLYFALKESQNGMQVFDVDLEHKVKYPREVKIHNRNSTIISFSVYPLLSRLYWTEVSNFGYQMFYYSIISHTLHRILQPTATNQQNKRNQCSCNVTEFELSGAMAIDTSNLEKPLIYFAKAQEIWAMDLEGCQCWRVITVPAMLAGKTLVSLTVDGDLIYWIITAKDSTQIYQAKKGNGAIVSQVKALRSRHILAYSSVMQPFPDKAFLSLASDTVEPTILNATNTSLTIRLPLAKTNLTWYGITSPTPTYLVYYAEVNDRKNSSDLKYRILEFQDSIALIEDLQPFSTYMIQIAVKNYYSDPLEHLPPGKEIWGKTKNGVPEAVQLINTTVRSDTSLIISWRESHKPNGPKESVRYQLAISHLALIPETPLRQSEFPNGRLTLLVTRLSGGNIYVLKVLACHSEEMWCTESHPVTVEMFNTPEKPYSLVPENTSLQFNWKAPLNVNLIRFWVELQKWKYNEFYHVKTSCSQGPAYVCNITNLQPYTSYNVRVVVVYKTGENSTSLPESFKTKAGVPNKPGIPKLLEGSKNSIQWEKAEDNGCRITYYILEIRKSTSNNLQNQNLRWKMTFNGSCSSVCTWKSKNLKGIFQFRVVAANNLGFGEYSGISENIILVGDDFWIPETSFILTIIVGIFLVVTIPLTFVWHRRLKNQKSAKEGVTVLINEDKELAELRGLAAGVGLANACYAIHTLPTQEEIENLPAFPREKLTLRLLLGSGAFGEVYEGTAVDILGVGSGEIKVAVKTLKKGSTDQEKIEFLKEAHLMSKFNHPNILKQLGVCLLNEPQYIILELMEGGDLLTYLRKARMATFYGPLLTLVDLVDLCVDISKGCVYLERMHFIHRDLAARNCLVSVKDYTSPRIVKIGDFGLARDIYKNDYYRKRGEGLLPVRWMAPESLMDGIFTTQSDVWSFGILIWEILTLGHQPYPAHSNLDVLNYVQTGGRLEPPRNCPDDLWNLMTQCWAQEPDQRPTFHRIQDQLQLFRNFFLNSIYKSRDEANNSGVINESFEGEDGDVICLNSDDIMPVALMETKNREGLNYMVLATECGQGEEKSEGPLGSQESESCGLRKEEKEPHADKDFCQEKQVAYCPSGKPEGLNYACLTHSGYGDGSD
T1 sequence (O60674 whole entry): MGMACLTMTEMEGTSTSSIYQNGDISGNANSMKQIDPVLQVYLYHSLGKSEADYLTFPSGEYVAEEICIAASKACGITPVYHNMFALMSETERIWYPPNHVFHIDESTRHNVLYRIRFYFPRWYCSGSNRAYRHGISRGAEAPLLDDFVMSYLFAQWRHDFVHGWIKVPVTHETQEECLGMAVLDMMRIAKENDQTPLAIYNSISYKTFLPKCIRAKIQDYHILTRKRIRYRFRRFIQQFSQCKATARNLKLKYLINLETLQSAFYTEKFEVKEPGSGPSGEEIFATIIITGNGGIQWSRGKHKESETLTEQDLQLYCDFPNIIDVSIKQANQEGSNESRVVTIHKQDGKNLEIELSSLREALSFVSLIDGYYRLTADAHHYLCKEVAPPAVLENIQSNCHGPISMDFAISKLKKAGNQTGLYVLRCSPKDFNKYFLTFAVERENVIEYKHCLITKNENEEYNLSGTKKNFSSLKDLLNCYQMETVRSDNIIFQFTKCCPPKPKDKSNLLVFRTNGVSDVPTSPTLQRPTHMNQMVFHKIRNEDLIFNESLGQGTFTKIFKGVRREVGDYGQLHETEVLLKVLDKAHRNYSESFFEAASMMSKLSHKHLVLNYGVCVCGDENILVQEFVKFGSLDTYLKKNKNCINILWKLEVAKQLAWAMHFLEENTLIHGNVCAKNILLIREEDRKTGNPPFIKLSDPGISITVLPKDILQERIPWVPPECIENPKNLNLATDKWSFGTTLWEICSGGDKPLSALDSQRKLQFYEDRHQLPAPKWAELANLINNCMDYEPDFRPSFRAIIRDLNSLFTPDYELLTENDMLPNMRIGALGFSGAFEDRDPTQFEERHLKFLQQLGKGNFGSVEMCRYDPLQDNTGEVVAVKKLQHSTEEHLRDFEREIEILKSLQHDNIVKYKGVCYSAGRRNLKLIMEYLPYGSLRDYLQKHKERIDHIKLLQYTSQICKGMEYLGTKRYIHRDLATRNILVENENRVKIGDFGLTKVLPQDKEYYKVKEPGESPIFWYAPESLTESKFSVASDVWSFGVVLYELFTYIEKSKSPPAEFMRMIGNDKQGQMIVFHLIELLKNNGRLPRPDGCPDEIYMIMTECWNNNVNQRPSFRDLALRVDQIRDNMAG

| SMILES | IC50 [1] [nM] | IC50 [2] [nM] |
| --- | --- | --- |
| COc1cccc(C2CCCN2c2cncc(Nc3ncc(C#N)s3)n2)c1 (stereo not shown) [Example 38, 2-({6-[2-(3-Methoxyphenyl)pyrrolidine-1-yl]pyrazin-2-yl}amino)-1,3-thiazole-5-carbonitrile] | 620 | 18 |
| Cc1ccc(C2CCCN2c2nc(Nc3ncc(C#N)s3)c(C)c(-c3ccc(O)nc3)n2)cc1 (stereo not shown) [Example 16, 2-({6-(6-Hydroxypyridin-3-yl)-5-methyl-2-[2-(4-methylphenyl)pyrrolidin-1-yl]pyrimidin-4-yl}amino)-1,3-thiazole-5-carbonitrile] | 36 | 1.5 |
| COc1c(Nc2ncc(C#N)s2)nc(N2CCCC2c2ccc(C)cc2)nc1C1CC1 (stereo not shown) [Example 18, 2-({6-Cyclopropyl-5-methoxy-2-[2-(4-methylphenyl)pyrrolidin-1-yl]pyrimidin-4-yl}amino)-1,3-thiazole-5-carbonitrile] | > 1000 | 120 |
| Cn1cc(-c2ncc(N3CCCC3c3ccc(F)cc3)nc2Nc2ncc(C#N)s2)cn1 (stereo not shown) [Example 28, 2-({6-[2-(4-Fluorophenyl)pyrrolidin-1-yl]-3-(1-methyl-1H-pyrazol-4-yl)pyrazin-2-yl}amino)-1,3-thiazole-5-carbonitrile] | > 1000 | 51 |
| Cc1ncc(N2CCCC2c2ccc(F)cc2)nc1Nc1ncc(C#N)s1 (stereo not shown) [Example 41, 2-({6-[2-(4-Fluorophenyl)pyrrolidin-1-yl]-3-methylpyrazin-2-yl}amino)-1,3-thiazole-5-carbonitrile] | 21 | 0.71 |
| Cc1ccc([C@@H]2CCCN2c2cnc(C3CC3)c(Nc3ncc(C#N)s3)n2)cc1 [Example 35, 2-({3-Cyclopropyl-6-[(2S)-2-(4-methylphenyl)pyrrolidin-1-yl]pyrazin-2-yl}amino)-1,3-thiazole-5-carbonitrile] | > 1000 | 2.9 |
| COc1cc(C)ccc1C1CCCN1c1cnc(C2CC2)c(Nc2ncc(C#N)s2)n1 (stereo not shown) [Example 23, 2-({3-Cyclopropyl-6-[2-(2-methoxy-4-methylphenyl)pyrrolidin-1-yl]pyrazin-2-yl}amino)-1,3-thiazole-5-carbonitrile] | > 1000 | 8.8 |
| Cc1cccc(C2CCCN2c2cncc(Nc3ncc(C#N)s3)n2)c1 (stereo not shown) [Example 46, 2-({6-[2-(3-Methylphenyl)pyrrolidin-1-yl]pyrazin-2-yl}amino)-1,3-thiazole-5-carbonitrile] | 280 | 6.4 |
| COc1c(Nc2ncc(C#N)s2)nc(N2CCCC2c2ccc(C)cc2)nc1-c1cccnc1F (stereo not shown) [Example 49, 2-({6-(2-Fluoropyridin-3-yl)-5-methoxy-2-[2-(4-methylphenyl)pyrrolidin-1-yl]pyrimidin-4-yl}amino)-1,3-thiazole-5-carbonitrile] | > 1000 | 52 |
| Cc1ccc(C2CCCN2c2nc(Nc3ncc(C#N)s3)c(C)c(-c3cnn(C)c3)n2)cc1 (stereo not shown) [Example 8, 2-({5-Methyl-2-[2-(4-methylphenyl)pyrrolidin-1-yl]-6-(1-methyl-1H-pyrazol-4-yl)pyrimidin-4-yl}amino)-1,3-thiazole-5-carbonitrile] | > 1000 | 3.9 |
| COc1ccc(C2CCCN2c2cncc(Nc3ncc(C#N)s3)n2)cc1 (stereo not shown) [Example 37, 2-({6-[2-(4-Methoxyphenyl)pyrrolidin-1-yl]pyrazin-2-yl}amino)-1,3-thiazole-5-carbonitrile] | 560 | 13 |
| Cc1ccccc1C1CCCN1c1cncc(Nc2ncc(C#N)s2)n1 (stereo not shown) [Example 47, 2-({6-[2-(2-Methylphenyl)pyrrolidin-1-yl]pyrazin-2-yl}amino)-1,3-thiazole-5-carbonitrile] | 280 | 17 |
| Cc1ccc(C2CCCN2c2nc(C)c(Br)c(Nc3ncc(C#N)s3)n2)cc1 (stereo not shown) [Example 17, 2-({5-Bromo-6-methyl-2-[2-(4-methylphenyl)pyrrolidin-1-yl]pyrimidin-4-yl}amino)-1,3-thiazole-5-carbonitrile] | > 1000 | 39 |
| COCCn1cc(-c2nc(N3CCC[C@H]3c3ccc(C)cc3)nc(Nc3ncc(C#N)s3)c2OC)cn1 [Example 58, 2-({5-Methoxy-6-[1-(2-methoxyethyl)-1H-pyrazol-4-yl]-2-[(2S)-2-(4-methylphenyl)pyrrolidin-1-yl]pyrimidin-4-yl}amino)-1,3-thiazole-5-carbonitrile] | 240 | 2.2 |
| COc1cc(C2CCCN2c2cncc(Nc3ncc(C#N)s3)n2)ccc1C (stereo not shown) [Example 33, 2-({6-[2-(3-Methoxy-4-methylphenyl)pyrrolidin-1-yl]pyrazin-2-yl}amino)-1,3-thiazole-5-carbonitrile] | 190 | 2.2 |
| N#Cc1cnc(Nc2nc(N3CCCC3c3ccc(F)cc3)cnc2C2CC2)s1 (stereo not shown) [Example 40, 2-({3-Cyclopropyl-6-[2-(4-fluorophenyl)pyrrolidin-1-yl]pyrazin-2-yl}amino)-1,3-thiazole-5-carbonitrile] | 230 | 2.1 |
| Cc1nc(C2CC2)c(Nc2ncc(C#N)s2)nc1N1CCCC1c1ccc(Cl)cc1 (stereo not shown) [Example 44, 2-({6-[2-(4-Chlorophenyl)pyrrolidin-1-yl]-3-cyclopropyl-5-methylpyrazin-2-yl}amino)-1,3-thiazole-5-carbonitrile] | ≥ 1000 | 13 |
| Cc1cc(-c2ncc(N3CCCC3c3ccc(F)cc3)nc2Nc2ncc(C#N)s2)ccn1 (stereo not shown) [Example 53, 2-({6-[2-(4-Fluorophenyl)pyrrolidin-1-yl]-3-(2-methylpyridin-4-yl)pyrazin-2-yl}amino)-1,3-thiazole-5-carbonitrile] | > 1000 | 67 |
| Cc1cnc(Nc2nc(N3CCCC3c3ccc(Cl)cc3)cnc2C2CC2)s1 (stereo not shown) [Example 31, 6-[2-(4-Chlorophenyl)pyrrolidin-1-yl]-3-cyclopropyl-N-(5-methyl-1,3-thiazol-2-yl)pyrazine-2-amine] | 390 | 5.3 |
| COc1c(Nc2ncc(C#N)s2)nc(N2CCCC2c2ccc(C)cc2)nc1-c1cccnc1 (stereo not shown) [Example 5, 2-({5-Methoxy-2-[2-(4-methylphenyl)pyrrolidin-1-yl]-6-(pyridin-3-yl)pyrimidin-4-yl}amino)-1,3-thiazole-5-carbonitrile] | > 1000 | 8.1 |
| COc1c(Nc2ncc(C#N)s2)nc(N2CCC[C@H]2c2ccc(C)cc2)nc1-c1cnn(C)c1 [Example 10, 2-({5-Methoxy-2-[(2S)-2-(4-methylphenyl)pyrrolidin-1-yl]-6-(l-methyl-1H-pyrazol-4-yl)pyrimidin-4-yl}amino)-1,3-thiazole-5-carbonitrile] | 260 | 1.1 |
| N#Cc1cnc(Nc2nc(N3CCC[C@H]3c3ccc(Cl)cc3)cnc2C2CC2)s1 [Example 36, 2-({6-[(2S)-2-(4-Chlorophenyl)pyrrolidin-1-yl]-3-cyclopropylpyrazin-2-yl}amino)-1,3-thiazole-5-carbonitrile] | 240 | 1 |
| COc1ccccc1C1CCCN1c1cnc(C2CC2)c(Nc2ncc(C#N)s2)n1 (stereo not shown) [Example 24, 2-({3-Cyclopropyl-6-[2-(2-methoxyphenyl)pyrrolidin-1-yl]pyrazin-2-yl}amino)-1,3-thiazole-5-carbonitrile] | 210 | 6.6 |
